Data on 12 compounds can be found in patent US9815866B2, “Peptides that bind to epithelial cell adhesion molecule” (JAPANESE FOUNDATION FOR CANCER RESEARCH, priority 2012, dated 2017).

Bridge positions count the residues as written; N and C are the ends. Ends that are not written are not given here. Peptide text beside a SMILES is read from it. * marks the point of attachment. Biotin = O=C1N[C@H]2[C@H](CS[C@H]2CCCCC(=O)*)N1

For experiment [1], the target named is T1, EpCAM on HT-29 (Homo sapiens, UniProt P16422).
T1 sequence (P16422 24-314): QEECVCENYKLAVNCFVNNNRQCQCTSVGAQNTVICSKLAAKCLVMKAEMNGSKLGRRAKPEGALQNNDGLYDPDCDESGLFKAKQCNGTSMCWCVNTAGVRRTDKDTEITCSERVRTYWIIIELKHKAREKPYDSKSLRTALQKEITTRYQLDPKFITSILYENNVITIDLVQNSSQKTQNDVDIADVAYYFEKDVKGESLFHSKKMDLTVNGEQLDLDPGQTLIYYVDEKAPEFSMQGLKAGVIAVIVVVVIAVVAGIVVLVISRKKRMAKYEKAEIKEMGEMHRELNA
The experiment can be described thus: Staining of spheroid-cultured HT-29 cells with FITC-modified peptide. The class given is cell-based. Also on record: endogenous in cells; host or cells: HT-29. To be noted: FITC-labeled peptide, 0.4 μM. As to the method:
The HT-29 cells as EpCAM-expressing cells were cultured by spheroid culture method as follows: 4×10^5 cells are suspended in 3 ml of D-MEM/F-12 medium (Dulbecco's Modified n Eagle Medium:Nutrient Mixture 12, 1:1 mixture) (Gibco/Life Technologies Inc.) supplemented with 20 ng/ml human EGF (Miltenyi Biotec K.K.), 20 ng/ml human EGF-2 (Miltenyi Biotec K.K.), B-27 (Gibco/Life Technologies Inc.), penicillin, and streptomycin and inoculated to EZ-Sphere®, a Petri dish of 3.5 cm in diameter coated with MPC polymer. After static culture for 72 hours, the cells were collected while the medium was suspended by pipetting. The cells were stained with the FITC-modified peptide and observed under a fluorescence microscope. […]

The target in experiment [2] is T2, EpCAM (Homo sapiens, UniProt P16422).
T2 sequence (P16422 24-314): T1 sequence (P16422 24-314)
Description: Binding activity against EpCAM after oxidation treatment (S—S bond formation, HPLC fractionation).

The target in experiment [3] is T3, 293T cells transfected with full-length EpCAM gene (Homo sapiens, UniProt P16422).
T3 construct: an expression plasmid in which the full-length EpCAM gene incorporated; expressed in transfected cells; host or cells: 293T
T3 sequence (P16422 24-314): T1 sequence (P16422 24-314)
The experiment can be described thus: Staining of 293T cells forced to express EpCAM with FITC-modified peptide. Format: cell-based. The text has this:
293T cells expressing no endogenous EpCAM were transfected with pkk196, an expression plasmid in which the full-length EpCAM gene incorporated, and forced to express EpCAM, followed by staining using FITC-modified Ep114.

Experiment [4] addresses T4, EpCAM (Homo sapiens, UniProt P16422).
T4 construct: with insertions myc and His tags at the C terminus of the extracellular domain; myc (C); made in house; host or cells: HEK-293T
T4 sequence (P16422 24-265 limits assumed): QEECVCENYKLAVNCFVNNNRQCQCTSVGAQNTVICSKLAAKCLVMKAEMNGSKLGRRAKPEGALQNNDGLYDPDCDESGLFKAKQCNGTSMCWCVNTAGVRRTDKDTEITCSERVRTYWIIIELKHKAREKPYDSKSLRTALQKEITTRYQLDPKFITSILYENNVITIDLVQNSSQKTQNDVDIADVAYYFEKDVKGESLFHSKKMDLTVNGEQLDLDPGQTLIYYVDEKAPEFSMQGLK
The experiment can be described thus: ELISA with immobilized biotinylated peptide and purified EpCAM. To be noted: purified EpCAM 0, 10 or 100 ng. The class given is binding. As to the method:
was immobilized onto an ELISA plate via streptavidin, and purified EpCAM was added thereto in an amount of 0, 10, or 100 ng and reacted. After washing, bound EpCAM was detected using the anti-EpCAM antibody. A biotin-modified peptide PE194 (Ac-[…](biotin)-NH2) (SEQ ID NO: 13) of the L3A variant (non-EpCAM-binding variant) was used as a control.
Background: In an ELISA, binding on a coated surface is turned into a signal by an enzyme label.

Experiment [5] concerns the target T4, EpCAM. The experiment can be described thus: Dissociation constant of EpCAM-binding peptide and EpCAM by fluorescence depolarization method. The settings on record: FITC-modified peptide; Kd estimated by curve fitting, Hill equation; N.B.: Not bound. As to the method: The obtained EpCAM peptides were assayed for their strength of binding to EpCAM by the fluorescence depolarization method, which is a method for evaluating the interaction between molecules. Each fluorescently labeled EpCAM peptide and EpCAM are used to determine the strength of binding from the kinetics of depolarization by Brownian movement.
Each FITC-modified EpCAM peptide or control peptide was suspended at a concentration of approximately 100 μM in PBS. After centrifugation, the supernatant was collected and diluted 10-fold, and the absorbance was measured at 495 nm From the measurement value, the molar concentration of the peptide was determined using the formula of Beer-Lambert of the following expression 1: A=E×b×C [Expression 1]
EpCAM is diluted with PBS into several concentrations from 0 until reaching equilibrium (40 nM for the Ep133 peptide), and the FITC-modified peptide whose precise concentration has been measured by the aforementioned method is added to the dilutions thus prepared. The sample was left at a temperature for measurement for 30 minutes or longer and subjected to polarization measurement using a spectrofluorometer FP-6500 (JASCO Corp.) equipped with an automatic polarization measurement unit (JASCO Corp., APH-103). Kd was estimated by curve fitting according to the Hill equation.
The dissociation constants of the two types of peptides Ep133 (FIG. 2(A)) and Ep114 (FIG. 2(C)), which were obtained in the present invention and had the high ability to bind to EpCAM, were measured by the fluorescence depolarization method.
The dissociation constants of the EpCAM-binding peptide Ep301 (FIG. 2(D)) disclosed in Patent Literature 2 and Ep301 control (FIG. 2(E)), which was a control peptide derived from Ep301 by the substitution of cysteine at positions 5 and 10 by serine, and a sequence of EpCAM from residue 106 to 119 (FIG. 2(F)) having partial homology to EpCAM-binding peptides were measured similarly.

The target in experiment [6] is T5, EpCAM-expressing cells HT-29 (Homo sapiens, UniProt P16422).
T5 construct: EpCAM on HT-29 was stained at a concentration of 0.4 μM; endogenous in cells; host or cells: HT-29
T5 sequence (P16422 24-314): T1 sequence (P16422 24-314)
The experiment can be described thus: Cell staining of HT-29 cells, confocal microscope. Format: cell-based. To be noted: HT-29, FITC-labeled peptide 0.4 μM, 37° C., 1 hour. As to the method: The EpCAM-expressing cells HT-29 or the non-expressing cells Hs578T were cultured in a medium containing 10% fetal calf serum in a Petri dish for 48 hours and then incubated at 37° C. for 1 hour with the FITC-labeled Ep114 peptide or a L3A control labeled peptide at a final concentration of 0.4 μM Immediately thereafter, the cells were observed under a confocal microscope.

Turning to “114-FITC: FITC-labeled Ep114 peptide (KHLQCVRNICWS; cysteine pairing not given here; also: FITC-labeled, position not given here) [Peptide 114-FITC]”, the “staining of EpCAM on HT-29 spheroids” value in experiment [1] was “stained”.
Still for that read-out and setting: then “114control-FITC: FITC-labeled Ep114 control peptide in which cysteine at positions 5 and 10 is substituted by serine (KHLQSVRNISWS; also: FITC-labeled, position not given here) [reference compound]”, with “no staining is observed”; and “133-FITC: FITC-labeled Ep133 peptide (EHLHCLGSLCWP; cysteine pairing not given here; also: FITC-labeled, position not given here) [Peptide 133-FITC]”, with “stained”.
Take “133control-FITC: FITC-labeled Ep133 control peptide in which cysteine at positions 5 and 10 is substituted by serine (EHLHSLGSLSWP; also: FITC-labeled, position not given here) [reference compound]”: in experiment [1], the “staining of EpCAM on HT-29 spheroids” value is reported as “no staining is observed”.
As to `CC(C)C[C@@H]1NC(=O)[C@@H](NC(=O)[C@H](Cc2c[nH]cn2)NC(=O)[C@H](CC(C)C)NC(=O)[C@H](Cc2c[nH]cn2)NC(=O)[C@@H](N)CCC(=O)O)CSSC[C@@H](C(=O)N[C@@H](Cc2c[nH]c3ccccc23)C(=O)N2CCC[C@H]2C(=O)O)NC(=O)[C@H](CC(C)C)NC(=O)[C@H](CO)NC(=O)CNC1=O` [Ep133, EHLHCLGSLCWP] (H-EHLHCLGSLCWP-OH; disulfide 5-10; N-terminus and C-terminus assumed), the “binding activity against EpCAM” value in experiment [2] is listed as “only a fraction of the peptides having the S—S bond showed binding activity against EpCAM”. The “ability to bind to EpCAM without active oxidation treatment” value in experiment [3] (data not shown) is recorded as “did not show the ability to bind to EpCAM”.
Regarding “Ac-KHAQCVRNICWSPPPPPPKK(Biotin)-NH2 (cysteine pairing not given here) [PE194, reference compound]”, the ELISA signal entry in experiment [4] is on record as “increase in signal intensity was rarely observed”.
The same measure, in the same setting: then “Ac-KHLQCVRNICWSPPPPPPKK(Biotin)-NH2 (cysteine pairing not given here) [PE183]”, with “enhancement in ELISA signal proportional to the amount of EpCAM added”.
Consider “EHLHSLGSLSWP [Ep133 control, Ep133 with cysteine at positions 5 and 10 substituted by serine]”, for which, in experiment [5], the “Kd (nM)” value is “N.B”.
In the case of “Ep114Cys: FITC-modified Ep114 peptide that did not undergo oxidation treatment (KHLQCVRNICWS; also: FITC-modified, position not given here, no oxidation treatment, cysteines not deliberately cross-linked)”, the “ability to stain EpCAM” value in experiment [3] (FITC-modified peptide with or without oxidation treatment) was “equivalent ability to stain EpCAM”.
Turning to KAKQCNGTSMCWPK [EpCAM partial sequence], in experiment [5], the “Kd (nM)” value is “N.B”.
As for “KSLQSINNLSWP [Ep301 control, Ep301 with cysteine at positions 5 and 10 substituted by serine]”, in experiment [5], the “Kd (nM)” value was “N.B”.
On to “L3A variant: FITC-labeled Ep114 variant peptide with leucine at 3rd residue substituted by alanine, staining control (KHAQCVRNICWS; cysteine pairing not given here; also: FITC-labeled, position not given here) [reference compound]”, for which, in experiment [6], the “staining of cell membrane portions” value is on record as “no staining was observed”.
